The numbers were not newly measured in patent publication US11599023B2, “Photosensitive resin composition, organic EL element barrier rib, and organic EL element” (SHOWA DENKO K.K., priority 2018, dated 2023), which cites them from elsewhere.

Like-named read-outs stand apart in the source and are kept apart here.

As a reminder, the pKa is the pH at which an ionisable group is half protonated.

Experiment in data set [1]: not given
The source holds these as a separate data set.

Setting [2] is: Table 1, at 20° C. and 1 atm, cited in Scifinder.
[3] abbreviates: Table 2, of the low molecular weight organic compound (B), cited in Scifinder.
The mark [4] stands for this setting: at 20° C. and 1 atm, SciFinder database.
Where [5] appears, read: Table 1, at 25° C., cited in Scifinder.

For the molecule `Oc1ccc(O)c(O)c1` [1,2,4-Benzenetriol], the Molar volume under setting [2] is reported as 84.7 cm^3/mol, the Molar volume under setting [3] was 84.7 cm^3/mol and the Molar volume under setting [4] is 84.7 cm^3/mol. The pKa in data set [1] (setting [5]) was 9.58; in data set [1] (setting [3]) it was 9.58; in data set [1] (at 25° C., SciFinder database), 9.58.

For `O=C(c1ccc(O)cc1)c1ccc(O)c(O)c1O` [2,3,4,4′-Tetrahydroxybenzophenone, 2,3,4,4′-Tetrahydroxybenzophenone, reference compound], the Molar volume under setting [2] is 161.2 cm^3/mol and the Molar volume under setting [3] is on record as 161.2 cm^3/mol. Moreover, the pKa in data set [1] (setting [5]) and in data set [1] (setting [3]) was 7.38 throughout.

As for `O=C(O)c1ccc(O)c(O)c1O` [2,3,4-Trihydroxybenzoic acid], the Molar volume is on record as 97.2 cm^3/mol under setting [2], 97.2 cm^3/mol under setting [3] and 97.2 cm^3/mol under setting [4]. Besides, the pKa in data set [1] (setting [5]) is listed as 3.30; in data set [1] (setting [3]), 3.30; in data set [1] (at 25° C., SciFinder database) it was 3.3.

Take `O=C(O)c1cccc(O)c1O` [2,3-Dihydroxybenzoic acid]: the Molar volume runs as follows: under setting [2], 98.8 cm^3/mol; under setting [3], 98.8 cm^3/mol; under setting [4], 98.8 cm^3/mol. Further, the pKa in data set [1] (setting [5]) is listed as 2.96; in data set [1] (setting [3]) it was 2.96; in data set [1] (at 25° C., SciFinder database), 2.96.

Turning to `O=C(O)c1ccc(O)cc1O` [2,4-Dihydroxybenzoic acid], the Molar volume reads like this: under setting [2], 98.8 cm^3/mol; under setting [3], 98.8 cm^3/mol; under setting [4], 98.8 cm^3/mol. Moreover, the pKa is 3.32 in data set [1] (setting [5]); 3.32 in data set [1] (setting [3]); 3.32 in data set [1] (at 25° C., SciFinder database).

As to `O=C(O)c1cc(O)ccc1O` [2,5-Dihydroxybenzoic acid], the Molar volume is 98.8 cm^3/mol under setting [2], 98.8 cm^3/mol under setting [3] and 98.8 cm^3/mol under setting [4].

In the case of `O=C(O)c1cc(O)cc(O)c1` [3,5-Dihydroxybenzoic acid], the Molar volume was 98.8 cm^3/mol under setting [2], 98.8 cm^3/mol under setting [3] and 98.8 cm^3/mol under setting [4]. Further, the pKa is given as 3.96 in data set [1] (setting [5]); 3.96 in data set [1] (setting [3]); 3.96 in data set [1] (at 25° C., SciFinder database).

`O=C(O)c1cc(O)c(O)c(O)c1` [Gallic acid]: the Molar volume is listed as 97.2 cm^3/mol under setting [2], 97.2 cm^3/mol under setting [3] and 97.2 cm^3/mol under setting [4].

With `O=C(O)c1cccc(C(=O)O)c1C(=O)O` [Hemimellitic acid], the Molar volume is, setting by setting: under setting [2], 127.0 cm^3/mol; under setting [3], 127.0 cm^3/mol; under setting [4], 127 cm^3/mol.

For `Oc1ccc(O)c2c(O)c3ccccc3c(O)c12` [Leucoquinizarin, reference compound], the Molar volume runs as follows: under setting [2], 151.3 cm^3/mol; under setting [3], 151.3 cm^3/mol. The pKa in data set [1] (setting [5]) and in data set [1] (setting [3]) was 8.11 each time.

For the molecule `O=C1OC(c2ccc(O)cc2)(c2ccc(O)cc2)c2ccccc21` [Phenolphthalein, reference compound], the Molar volume is listed as 229.7 cm^3/mol under setting [2] and 229.7 cm^3/mol under setting [3]. Further, the pKa in data set [1] (setting [5]) and in data set [1] (setting [3]) was 9.23 each time.

Turning to `O=C(O)c1ccccc1C(c1ccc(O)cc1)c1ccc(O)cc1` [Phenolphthalin, reference compound], the Molar volume by setting is: under setting [2], 242.0 cm^3/mol; under setting [3], 242.0 cm^3/mol. For the same molecule, the pKa in data set [1] (setting [5]) and in data set [1] (setting [3]) was 3.96 in each case.

On to `Oc1cc(O)cc(O)c1` [Phloroglucinol], for which the Molar volume was 84.7 cm^3/mol under setting [2], 84.7 cm^3/mol under setting [3] and 84.7 cm^3/mol under setting [4]. The pKa is 9.06 in data set [1] (setting [5]); 9.06 in data set [1] (setting [3]); 9.06 in data set [1] (at 25° C., SciFinder database).

On to `CCCOC(=O)c1cc(O)c(O)c(O)c1` [Propyl gallate, reference compound], for which the Molar volume is 155.6 cm^3/mol under setting [2] and 155.6 cm^3/mol under setting [3].

For the molecule `Oc1cccc(O)c1O` [Pyrogallol], the Molar volume runs as follows: under setting [2], 84.7 cm^3/mol; under setting [3], 84.7 cm^3/mol; under setting [4], 84.7 cm^3/mol.

Consider `O=C(O)c1cc(C(=O)O)c(C(=O)O)cc1C(=O)O` [Pyromellitic acid, reference compound], for which the Molar volume under setting [2] is on record as 139.5 cm^3/mol and the Molar volume under setting [3] is reported as 139.5 cm^3/mol.

In the case of `Oc1ccccc1O` [catechol], under setting [4], the Molar volume was 86.2 cm^3/mol.

In the case of `Oc1ccc(O)cc1` [hydroquinone], under setting [4], the Molar volume was 86.2 cm^3/mol. In addition, the pKa in data set [1] (at 25° C., SciFinder database) was 9.58.

Consider `O=C(O)c1cccc(C(=O)O)c1` [isophthalic acid], for which, under setting [4], the Molar volume is reported as 114.4 cm^3/mol.

As for `O=C(O)c1ccccc1C(=O)O` [phthalic acid], the Molar volume under setting [4] is 114.4 cm^3/mol.

For `Oc1cccc(O)c1` [resorcinol], under setting [4], the Molar volume is 86.2 cm^3/mol. Moreover, the pKa in data set [1] (at 25° C., SciFinder database) is 9.45.

On to `O=C(O)c1ccc(C(=O)O)cc1` [terephthalic acid], for which the Molar volume under setting [4] was 114.4 cm^3/mol.

Regarding `O=C(O)c1ccc(C(=O)O)c(C(=O)O)c1` [trimellitic acid], the Molar volume under setting [4] is 127.0 cm^3/mol.

With `O=C(O)c1cc(C(=O)O)cc(C(=O)O)c1` [trimesic acid], under setting [4], the Molar volume is 127.0 cm^3/mol.
